Assay results from US20250155433A1, “FLUORESCENT SENSORS FOR DETECTION OF SIDEROPHORES AND OTHER MOLECULES PRODUCED BY BACTERIAL PATHOGENS” (Kansas State University Research Foundation, priority 2021, published 2025).
Where two headings read alike, the source gives them in different places. Where a SMILES comes first, the peptide text is derived from it. [ ]: non-standard residue; d: D form. Orn(N5-OH,N5-Ac) = CC(=O)N(O)CCC[C@H](N)C(=O)O

Columns and labels:
KpnFyuA = experiment: Fluorescence quenching binding to KpnFyuA-FM sensor; design: species or system Klebsiella pneumoniae
Description: (§1) Fluorescence modifications. For modifications with maleimide fluorophores, we inoculated E. coli strains OKN3, OKN13, OKN359 or OKN1359, harboring plasmids that encoded a Cys mutant LGP, from frozen stocks into LB, grew them overnight and sub-cultured at 1% into iron-deficient MOPS minimal media, with shaking (200 rpm) at 37° C. for 10-12 h, until late exponential phase. After collecting the cells by centrifugation at 7500×g for 15 min, and washing with 50 mM NaHPO4, pH 6.7, we labeled the Cys-mutant LGP with 5 μM FM in 50 mM NaHPO4, pH 6.7 for 15 min at 37° C. FM. We terminated the labeling reactions with 100 μM β-mercaptoethanol. After collecting the fluoresceinated cells by centrifugation at 7500×g for 15 min, and washing with 50 mM NaHPO4, pH 6.7, we re-suspended them in PBS plus 0.2% glucose. We either immediately used the labeled cells in spectroscopic experiments, or rested them on ice (up to 24 h), or added glycerol to 15% and stored them (indefinitely) as 1 mL aliquots at −70° C. […] After electrophoresis, we first visualized the fluorescence labeling on a Typhoon 8600 Biomolecular Scanner (GE/Amersham), and then stained the gels with Coomassie blue R (153).
(§2) Fluorescence spectroscopic binding determinations. We observed fluorophore-labeled cells in an SLM AMINCO 8100 fluorescence spectrometer, upgraded with an OLIS operating system and software (OLIS SpectralWorks, OLIS Inc., Bogart, GA), to control its shutters, polarizers and data collection. We also utilized an OLIS Clarity fluorescence spectrometer for fluorescence assays. For binding determinations we deposited 2.5×10^7 labeled cells in a quartz cuvette (final volume, 2 mL) with stirring at 37° C., measured the initial fluorescence (F0), and then added increasing concentrations of an iron complex while monitoring the quenching of fluorescence emissions (F) at 520 nm. We performed each measurement in triplicate and calculated the mean value of F/F0 at each ligand concentration. […]
(§3) Table 1 lists KD values from analysis of fluorescence quenching with ferric or apo (parenthetic values) siderophores or porphyrins. […]

AbaPiuA = AbaPiuA (Acinetobacter baumannii, UniProt D0CAH3, S724C); experiment: Fluorescence quenching binding to AbaPiuA-FM sensor
Description: as §1, §2, §3

EcoFhuA = EcoFhuA (Escherichia coli, UniProt P06971); experiment: Fluorescence quenching binding to EcoFhuA-FM sensor; conditions: read-out: Affinity (KD) of sensor EcoFhuA; ferric complexes; Cys residue D396C, FM-labeled; NB = no binding
Description: (§4) Fluorescence modifications. For modifications with maleimide fluorophores, we inoculated E. coli strains OKN3, OKN13, OKN359 or OKN1359, harboring plasmids that encoded a Cys mutant LGP, from frozen stocks into LB, grew them overnight and sub-cultured at 1% into iron-deficient MOPS minimal media, with shaking (200 rpm) at 37° C. for 10-12 h, until late exponential phase. After collecting the cells by centrifugation at 7500×g for 15 min, and washing with 50 mM NaHPO4, pH 6.7, we labeled the Cys-mutant LGP with 5 μM FM in 50 mM NaHPO4, pH 6.7 for 15 min at 37° C. FM. We terminated the labeling reactions with 100 μM β-mercaptoethanol. After collecting the fluoresceinated cells by centrifugation at 7500×g for 15 min, and washing with 50 mM NaHPO4, pH 6.7, we re-suspended them in PBS plus 0.2% glucose. We either immediately used the labeled cells in spectroscopic experiments, or rested them on ice (up to 24 h), or added glycerol to 15% and stored them (indefinitely) as 1 mL aliquots at −70° C. In the latter case, after thawing the labeled cells we pelleted them by centrifugation in a microfuge, washed them once with and re-suspended them in PBS containing 0.2% glucose. Lastly, for evaluation of protein expression or the extent of FM-labeling we solubilized aliquots of the cell suspensions with sample buffer, and subjected them to SDS-PAGE. After electrophoresis, we first visualized the fluorescence labeling on a Typhoon 8600 Biomolecular Scanner (GE/Amersham), and then stained the gels with Coomassie blue R (153).
as §2, with “concentration. We plotted 1−F/F0 vs [ligand] and analyzed the data by the 1-site binding model of Grafit 6.0.12 (Erithacus Ltd. West Sussex, UK), that fits data to a single site saturation curve, where the amount of ligand bound is plotted as a function of the amount free:” for “concentration.”
as §3

EcoIutA = target: T1, EcoIutA (Escherichia coli, UniProt P14542, T573C); experiment: Fluorescence quenching binding to EcoIutA-FM sensor; conditions: for Binding by IutA: other ferric hydroxamates
T1 construct: expressed in transfected cells; host or cells: E. coli OKN3/OKN13/OKN359/OKN1359 carrying a pITS23 derivative
Description: as §4
as §2, with “concentration. We plotted 1−F/F0 vs [ligand] and analyzed the data by the 1-site binding model of Grafit 6.0.12 (Erithacus Ltd. West Sussex, UK), that fits data to a single site saturation curve, where the amount of ligand bound is plotted as a function of the amount free:” for “concentration.”
as §3

[1] = target: T2, HsaSCN (human siderocalin) (Homo sapiens, UniProt P80188, Q148C); experiment: Fluorescence quenching binding to purified HsaSCN-FM sensor
T2 construct: adds a 6H-tag at either the N- or C-termini of the mature proteins; 6-His (N); made in house; host or cells: E. coli BL21 (pET28), IPTG-induced; purified on Talon Superflow

In the case of CC(C)(C1=N[C@@](C)(C(=O)O)CS1)[C@H](O)[C@@H]1CSC([C@H]2CSC(c3ccccc3O)=N2)N1 (stereo partly drawn) [Ybt, yersiniabactin], the Kd (KpnFyuA; apo (parenthetic value), S631C, read-out: Affinity (KD) of sensor KpnFyuA, apo siderophore) is reported as 120 nM.
O=C(N[C@H]1COC(=O)[C@@H](NC(=O)c2cc([C@@H]3O[C@H](CO)[C@@H](O)[C@H](O)[C@H]3O)cc(O)c2[O-])COC(=O)[C@@H](NC(=O)c2cc([C@@H]3O[C@H](CO)[C@@H](O)[C@H](O)[C@H]3O)cc(O)c2[O-])COC1=O)c1cccc(O)c1[O-].[Fe+3] [FeGEnt] was tested, and the “Binding by AbaPiuA” value (AbaPiuA) was “did not bind”.
In the case of O=C(N[C@@H](CO)C(=O)O)c1cccc(O)c1O.[Fe+3] [FeDHBS], the “Binding by AbaPiuA” value (AbaPiuA) is reported as “did not bind”.
CC(=O)N(O)CCC[C@@H]1NC(=O)CNC(=O)CNC(=O)CNC(=O)[C@H](CCCN(O)C(C)=O)NC(=O)[C@H](CCCN(O)C(C)=O)NC1=O.[Fe+3] [Fc, ferrichrome] (cyclo(GGG[Orn(N5-OH,N5-Ac)][Orn(N5-OH,N5-Ac)][Orn(N5-OH,N5-Ac)])) was tested, and the Kd (EcoFhuA) was 3 nM, the “Binding by IutA” value (EcoIutA) was “did not measurably bind” and the Kd ([1]; read-out: KD, HsaSCN-FM) was 110 nM.
For CC(=O)N(O)CCCCCNC(=O)CCC(=O)N(O)CCCCCNC(=O)CCC(=O)N(O)CCCCCN.[Fe+3] [FxB], the Kd (EcoFhuA) was 100000 nM, the Kd (KpnFyuA; ferric complexes, Cys residue S631C, FM-labeled, NB = no binding, read-out: Affinity (KD) of sensor KpnFyuA) was 277000 nM and the “Binding by KpnFyuA” value (KpnFyuA; secondary ligands) was “weakly bound”. For the same compound, the “Binding by IutA” value (EcoIutA) was “did not measurably bind”, the Kd ([1]; read-out: Affinity (KD) of sensor HsaSCN, ferric complexes and porphyrins, Cys residue Q128C, FM-labeled purified protein, NB = no binding) was 175 nM and the Kd ([1]; read-out: KD, HsaSCN-FM) was 180 nM.
With CC(=O)N(O)CCCC[C@H](NC(=O)CC(O)(CC(=O)N[C@@H](CCCCN(O)C(C)=O)C(=O)O)C(=O)O)C(=O)O [Abn, aerobactin] the Kd (EcoIutA) was 1400 nM.
In the case of C/C(=C\C(=O)N(O)CCC[C@@H]1NC(=O)CNC(=O)[C@H](CO)NC(=O)[C@H](CO)NC(=O)[C@H](CCCN(O)C(=O)/C=C(\C)CC(=O)O)NC(=O)[C@H](CCCN(O)C(=O)/C=C(\C)CC(=O)O)NC1=O)CC(=O)O.[Fe+3] [FcA], the Kd (EcoFhuA) is reported as 60 nM and the “Binding by IutA” value (EcoIutA) is reported as “did not measurably bind”.
